Assay results published in patent publication US20030228672A1, “Sorbitol dehydrogenases of ketogulonigenium species, genes and methods of use thereof” (priority 2002, published 2003).

Legend:
[1] = system: purified SDH of Ketogulonigenium sp. ADM 291-19; assay: Substrate specificity of purified SDH, PMS-DCIP method; type: biochemical; details: 1-Propanol = 100
Description: The dehydrogenase enzyme activity was assayed spectrophotometrically using 2,6-dichlorophenol indophenol (DCIP) as an artificial electron acceptor and phenazine methosulphate (PMS) as an electron mediator. […] The rate of decrease in absorbance at 522 nm was determined. One unit of enzyme activity was defined as the amount of enzyme catalyzing reduction of 1 μmol of DCIP per minute.
(§1) First, the periplasmic proteins from the cells of K. robustum ADM X6L and Ketogulonigenium sp. ADM 291-19 obtained in Step 1 of Example 1 were prepared by osmotic shock fractionation as described in Step 3 of Example 1. About 50 ml of osmotic shock fluid containing periplasmic proteins was loaded onto a DEAE-TSK 650 (S) (Merck) column (2.5×15 cm) previously equilibrated with 10 mM Tris·HCl buffer (pH 8.0). The column was first washed with 80 ml of 10 mM Tris·HCl buffer (pH 8.0) containing 0.1 M NaCl, followed by a gradient elution with 600 ml of the same buffer containing 0.1-0.5 M NaCl. Fractions containing 5 ml of eluant were collected and assayed for the SDH enzyme activities with D-sorbitol, L-sorbose and glyoxal as substrate. […] At about 0.15 M NaCl, eluted red fractions that probably contained cytochrome c.
(§2) Active fractions eluted from DEAE column were pooled and further purified by gel filtration column chromatography. The active fractions were concentrated by about 20 fold with ultrafiltration in Centricon 30 (Amicon). The concentrate was loaded onto Superose 12 (Pharmacia) and eluted isocratically with 50 mM sodium phosphate buffer (pH 7.0) containing 0.15 M NaCl.
(§3) The purified enzymes were active toward D-sorbitol, L-sorbose and glyoxal.

[2] = system: purified SDH of K. robustum ADM X6L; assay: as above; type: biochemical, Ketogulonigenium robustum ADM X6L; details: 1-Propanol = 100
Description: The dehydrogenase enzyme activity was assayed spectrophotometrically using 2,6-dichlorophenol indophenol (DCIP) as an artificial electron acceptor and phenazine methosulphate (PMS) as an electron mediator. The reaction mixture contained 50 mM Tris·HCl buffer (pH 8.0), 10 mM MgCl2, 5 mM CaCl2, 5 mM KCN, 0.1 mM PMS, 0.12 mM DCIP, a substrate as D-sorbitol (250 mM), L-sorbose (250 mM) or glyoxal (50 mM) and enzyme solution in a total volumn of 1.0 ml. The rate of decrease in absorbance at 522 nm was determined. One unit of enzyme activity was defined as the amount of enzyme catalyzing reduction of 1 μmol of DCIP per minute.
as §1, §2, §3

[3] = system: K. robustum ADM X6L transformants; assay: Bioconversion of D-sorbitol by transformants, HPLC of culture supernatant; type: cell-based, Ketogulonigenium robustum ADM X6L; details: for improvement of L-sorbose production from D-sorbitol upon overexpression: flask scale experiment, versus pXH2 control; for L-sorbose production from D-sorbitol upon overexpression (in words): flask scale experiments
Description: For expression of the three SDH genes in K. robustum strains, the genes with their own promoters were subcloned into the vector, pXH2/K5. These plasmids were transformed into the strains, K. robustum ADM X6L and 86-96 (NRRL B-21630), by electroporation. In this case, gene dosage effect may be expected due to the apparent high copy number of the plasmid pXH2/K5. The transformants were analyzed by HPLC for improved conversion activity upon overexpression of each SDH gene using D-sorbitol and L-sorbose as substrate.
The effect of overexpression of the three SDH genes in bioconversion activity was analyzed by HPLC analysis of the product profile of the culture supernatant of transformants in a medium containing D-sorbitol or L-sorbose as substrate. The transformants were cultivated overnight in RM medium containing 20 μg/ml of Kanamycin. This overnight culture was used to inoculate the 25 ml RM medium (supplemented with 20 μg/ml of Kanamycin) containing 20 g/l of D-sorbitol or 20 g/l of L-sorbose as substrate instead of mannitol. The culture supernatant samples were taken in a 12-hour interval and were analyzed by HPLC (Gilson HPLC with RI detector (ERC-7515A, ERC Inc.)) equipped with Asted XL automatic sample injector. Samples were loaded on two 2 mm×300 mm×7.8 mm Aminex HPX-87H columns (BioRad) arranged in series to provide a total column length of 600 mm. The column was run at 50° C. at a flow rate of 0.5 ml/min. The peaks were identified and the concentration was determined by comparison with those of the standards using glycerol as internal standard.
K. robustum ADM X6L transformants harboring the pXSDH1, pXSDH2 or pXSDH3 were cultivated with D-sorbitol or L-sorbose as substrate. HPLC analysis of the products from D-sorbitol (Table 10) or L-sorbose (Table 11) is shown below. A transformant harboring pXH2 served as control.

CCCO [1-Propanol]
% relative activity, ADM291-19 ([1]; substrate 50 mM): 100% | % relative activity, ADM X6L ([2]; substrate 50 mM): 100%

O=C(CO)[C@@H](O)[C@H](O)[C@H](O)CO [D-Fructose]
% relative activity, ADM291-19 ([1]; substrate 250 mM): 11.7% | % relative activity, ADM X6L ([2]; substrate 250 mM): 8.0%

O=C(O)[C@H](O)[C@@H](O)[C@H](O)[C@H](O)CO [D-Gluconate]
% relative activity, ADM291-19 ([1]; substrate 250 mM): 20.0% | % relative activity, ADM X6L ([2]; substrate 250 mM): 30.6%

O=C[C@H](O)[C@@H](O)[C@H](O)[C@H](O)CO [D-Glucose]
% relative activity, ADM291-19 ([1]; substrate 250 mM): 20.0% | % relative activity, ADM X6L ([2]; substrate 250 mM): 27.6%

OC[C@@H](O)[C@@H](O)[C@H](O)[C@H](O)CO [D-Mannitol]
% relative activity, ADM291-19 ([1]; substrate 100 mM): 0% | % relative activity, ADM X6L ([2]; substrate 100 mM): 26.6%

CCO [Ethanol]
% relative activity, ADM291-19 ([1]; substrate 50 mM): 38.0% | % relative activity, ADM X6L ([2]; substrate 50 mM): 20.0%

OCC(O)CO [Glycerol]
% relative activity, ADM291-19 ([1]; substrate 250 mM): 32.5% | % relative activity, ADM X6L ([2]; substrate 250 mM): 56.5%

B1: SDH1: sorbitol dehydrogenase of K. robustum ADM 86-96, 578 amino acids (SEQ ID NO:5) (protein, listed as Ketogulonigenium sp.)
chain: MKSNSLLLASVAAVAFFAVPAFADVTPVTDELLANPPAGEWISYGRNQENYRHSPLNQITPDNVGQLQLVWARGMNPGVVQVTPLIHDGVMYLANPGDIIQAIDAKTGDLIWEHRRQLPETSTLSSLGDRKRGIALYGTNVYFVSWDNHMVALDAASGQVVFDVDRGQGDERVSNSSGPIVANGVIVAGSTCQYSPFGCFVSGHDASTGEELWRNYFIPQAGEEGDETWGNDYEARWMTGVWGQITYDPTTNLVFYGSSAVGPASEVQRGTPGGTLYGTNTRFAVRPDTGEVVWRHQTLPRDNWDQECTFEMMVANVDVQPAADMDGVQAINPNAATGERRVLTGVPCKTGTMWQFDAETGEFLWARDTNYQNMISSIDETGLVTVNEDIILKDLDTDYRICPTFLGGRDWPSASLNPDSGIYFIPLNNACADLAAVDQEFTAMDVYNTSATYLLAPEKENMGRIDAIDISTGKTLWSVERLASNYSPVLSTAGGVLFNGGSDRYFRALSEETGETLWQTRLATVASGQAISYELDGVQYVAIAGGGNTYGTNLNSNIGATIDSTSIGNAVYVFALPQ
improvement of L-sorbose production from D-sorbitol upon overexpression [3]: ~2 times | L-sorbose production from D-sorbitol upon overexpression (in words) [3]: significantly improved

B2: SDH3: sorbitol dehydrogenase of K. robustum ADM 86-96, 580 amino acids (SEQ ID NO:8) (protein, listed as Ketogulonigenium sp.)
chain: MRPTTLLRTSAAVLLLGPIPAFAQVTPITDELLANPPAGEWINYGRNQENYRHSPLEQITTDNVGQLQLVWARGMEAGAVQVTPMIHDGVMYLANPGDVIQAIDAKTGDLMWEHRRQLPPVASLNGQGDRKRGVALYGTNLYFTSWDNHLVALDMATGQVVFDVERGSGDDGLTSNTSGPIVANGVIVAGSTCQYSPYGCFVSGHDPASGEELWRNYFIPQAGEEGDETWGNDFESRWMTGVWGQLTYDPVTNLVHYGSTGVGPASETQRGTPGGTLYGTNTRFAVRPDTGEIVWRHQTLPRDNWDQECTFEMMVANVDVQPAADMDGVQAINPNATTGERRVLTGIPCKTGTMWQFDAETGEFLWARDTNYQNLIASIDETGLVTVNEDSVLTQLDTDYDICPTFLGGRDWPSAALNPDSGIYFIPLNNACVDIMAVDQEFSALDVYNTSASYKLAPGFENMGRIDAIDISTGKTLWSAERLASNYSPVLSTAGGVLFNGGTDRYLRALSQETGETLWQTRLASVATGQAISYEIDGTQYVAIAGGGSTYGTNQNRALSEAIDSTTIGNAVYVFALPQQ
improvement of L-sorbose production from D-sorbitol upon overexpression [3]: ~3 times | L-sorbose production from D-sorbitol upon overexpression (in words) [3]: significantly improved
